# Source: patent publication US20210337791A1, “Methods For Killing Insects Such As Drosophila species” (The United States of America, as represented by the …, priority 2020, published 2021)
# Tests used:
# [1] = test system: Drosophila suzukii; experiment: Feeding test of D. suzukii adults with tyramine or M-tyramine sucrose solutions (fly mortality); format: in vivo; conditions: 7 days; for fly mortality, first and second experiments: 1% solution in 0.5 M sucrose; for mortality: 4% compound in 0.5 M sucrose
# Method: Flies and sugars: Drosophila suzukii used in these experiments were from a colony maintained at 22±5° C. under a photoperiod of L:D 16:8 h and a relative humidity of 60±5% RH at the Horticultural Crops Research Unit, USDA ARS in Corvallis, Oreg. Wildtype flies collected from infested fruits in Corvallis, Oreg., were used to start the colony. Standard rearing methods and diet are described by Woltz et al. (Journal of Applied Entomology, 139: 759-770 (2015)). Newly emerged adult males and females were collected daily and maintained in cages with water and diet until they were specific ages for experimentation.
# The chemical components were tyramine (98%, Sigma-Aldrich), N-methyl-tyramine (shortened name=M-tyramine), 95%, Combi-Blocks, Inc.), and sucrose (>99%, Fisher Scientific, Hampton, N.H.).
# The effect of tyramine and M-tyramine formulations on fly mortality-I: Ten 5-day old flies (5 males and 5 females) were introduced into a plastic vial and given a tube (1.5 ml) containing different water-based solutions (FIG. 1). For the first experiment various pairs were tested (FIG. 2A): (a) Sucrose 0.5 M only; (b) Tyramine 0.1%+Sucrose 0.5 M (0.1% Tyramine); (c) Tyramine 1%+Sucrose 0.5 M (1% Tyramine); (d) M-Tyramine 0.1%+Sucrose 0.5 M (0.1% M-Tyramine); and (e) M-Tyramine 1%+Sucrose 0.5 M (1% M-Tyramine).
# The effect of tyramine and M-tyramine formulations on fly mortality-II: The second experiment consisted of the following (FIG. 2B): (a) Sucrose 0.5 M only; (b) Tyramine 1%+Sucrose 0.5 M (1% Tyramine); (c) Tyramine 2%+Sucrose 0.5 M (2% Tyramine); (d) M-Tyramine 1%+Sucrose 0.5 M (1% M-Tyramine), and (e) M-Tyramine 2%+Sucrose 0.5 M (2% M-Tyramine).
# The effect of tyramine and M-tyramine formulations on fly mortality-III: The third experiment consisted of the following (FIG. 2C): (a) Sucrose 0.5 M only; (b) Tyramine 2%+Sucrose 0.5 M (2% Tyramine); (c) Tyramine 4%+Sucrose 0.5 M (4% Tyramine); (d) M-Tyramine 2%+Sucrose 0.5 M (2% M-Tyramine); and (e) M-Tyramine 4%+Sucrose 0.5 M (4% M-Tyramine). Survivorship of flies was checked daily for 7 days. Each pair per experiment was replicated at least eight times.
# [2] = Aqueous solubility; format: physicochemical
# Source text: By the term “effective amount” of a compound or property as provided herein is meant such amount as is capable of performing the function of the compound or property for which an effective amount is expressed. As will be pointed out below, the exact amount required will vary from process to process, depending on recognized variables such as the compounds employed and the processing conditions observed. Thus, it is not possible to specify an exact “effective amount.” However, an appropriate effective amount may be determined by one of ordinary skill in the art using only routine experimentation. Generally the concentration of the compounds will be, but not limited to, at least about 0.1% (e.g., at least 0.1%; for example in an aqueous solution), at least about 1% (e.g., at least 1%), preferably at least about 2% (e.g., at least 2%), preferably at least about 3% (e.g., at least 3%), preferably at least about 4% (e.g., at least 4%). […] However, higher concentrations than the limits shown could be obtained using solubilizing agents (e.g., DMSO of DMF) or chelating agents; for example, at least about 5% (e.g., at least 5%), preferably at least about 6% (e.g., at least 6%), preferably at least about 7% (e.g., at least 7%), preferably at least about 8% (e.g., at least 8%), preferably at least about 9% (e.g., at least 9%), and preferably at least about 10% (e.g., at least 10%). Concentrations lower than about 2% would require longer duration of exposure, such as the composition in a bait station to which the target insects have long term access to, thus increasing the total dose.
# [3] = test system: fire ant; experiment: Feeding of biogenic amines to fire ants (worker and queen mortality); format: in vivo; conditions: for fire ant worker mortality versus sucrose controls: biogenic amines all formulated at 1.0%
# [4] = test system: tawny crazy ant workers; experiment: Pest ant specificity of tyramine using tawny crazy ant workers; format: in vivo
Compound,"fly mortality, first and second experiments [1]",mortality [1],aqueous solubility (upper limit) ([2]; free base),aqueous solubility (upper limit) ([2]; salt form),fire ant worker mortality versus sucrose controls [3],also measured
"CNCCc1ccc(O)cc1 [M-tyramine, N-methyl-tyramine]",not statistically consistent,100%,~3.4%,about 10%,–,–
NCCc1ccc(O)c(O)c1 [dopamine],–,–,–,–,no different than the sucrose controls,–
NCCc1c[nH]cn1 [histamine],–,–,–,–,no different than the sucrose controls,–
NCC(O)c1ccc(O)cc1 (centres unmarked) [octopamine],–,–,–,–,no different than the sucrose controls,–
NCCc1c[nH]c2ccc(O)cc12 [serotonin],–,–,–,–,no different than the sucrose controls,–
NCCc1ccc(O)cc1 [tyramine],not statistically consistent,100%,about 1%,about 5%,significant fire ant worker mortality,"mortality of tawny crazy ant workers versus controls [4]: did not result in mortality greater than the controls; fly mortality versus 0.5 M sucrose negative control ([1]; 0.1% solution in 0.5 M sucrose): not significantly different; mortality in small lab colonies ([3]; tyramine fed to small lab fire ant colonies): worker and queen fire ant mortality; fire ant worker mortality ([3]; workers fed 1.0, 0.1, and 0.01% wt(g)/vol(L)): significant mortality"
